In brackets after ≈: the same amount, converted by molar mass.
What was measured:
[1] = test system: B16; experiment: Cytotoxicity against mouse B16 cells assessed as reduction in cell viability incubated for 24 hrs by CCK-8 assay; format: functional, cell-based; details: B16, 24 h
[2] = test system: SK-MEL-28; experiment: Cytotoxicity against human SK-MEL-28 cells assessed as reduction in cell viability incubated for 24 hrs by CCK-8 assay; format: functional, cell-based; details: SK-MEL-28, 24 h
[3] = target: T1, Deoxyhypusine synthase (Homo sapiens, UniProt P49366); experiment: Inhibition of DHPS (unknown origin ) incubated for 30 mins by NAD/NADH-Glow assay
T1 sequence (P49366 whole entry): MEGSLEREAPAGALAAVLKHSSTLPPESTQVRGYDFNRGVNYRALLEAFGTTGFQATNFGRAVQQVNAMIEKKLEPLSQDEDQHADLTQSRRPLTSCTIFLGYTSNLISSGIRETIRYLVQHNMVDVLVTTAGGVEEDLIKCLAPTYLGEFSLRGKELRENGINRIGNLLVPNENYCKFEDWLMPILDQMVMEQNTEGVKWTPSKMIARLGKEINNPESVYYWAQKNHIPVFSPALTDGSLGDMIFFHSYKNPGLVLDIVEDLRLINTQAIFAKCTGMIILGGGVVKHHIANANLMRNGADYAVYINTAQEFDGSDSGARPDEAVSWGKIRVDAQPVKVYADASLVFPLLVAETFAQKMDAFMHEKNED

[4] = test system: A-375; experiment: Cytotoxicity against human A-375 cells assessed as reduction in cell viability incubated for 24 hrs by CCK-8 assay; format: functional, cell-based; details: A-375, 24 h
[5] = (§1) Cytotoxicity against human HaCaT cells assessed as reduction in cell viability incubated for 24 hrs by CCK-8 assay; format: toxicity, cell-based; details: HaCaT cells
[6] = test system: HaCaT; experiment: as §1; format: toxicity, cell-based; details: hacat, 24 h
[7] = Toxicity in Sprague-Dawley rat assessed as effect on serum CRE level at 160 mg/kg, ip (19.43 to 64.97 micromol/L); format: organism-based; details: in vivo
[8] = Toxicity in Sprague-Dawley rat assessed as effect on serum AST level at 160 mg/kg, ip (reference value: 69.70 to 332.90 U/L); format: organism-based; details: in vivo
[9] = Clearance in Sprague-Dawley rat at 160 mg/kg, ip by UHPLC-MS analysis; format: ADME, organism-based; details: in vivo
[10] = Toxicity in Sprague-Dawley rat assessed as effect on serum Glu level at 160 mg/kg, ip (reference value: 2.65 to 7.65 mmol/L); format: organism-based; details: in vivo
[11] = Aqueous solubility of compound; format: physicochemical; details: buffer
[12] = AUC (0 to infinity) in Sprague-Dawley rat at 160 mg/kg, ip by UHPLC-MS analysis; format: ADME, organism-based; parameters: route intraperitoneal, time infinity, dose 160 mg/kg; details: in vivo
[13] = AUC (0 to t) in Sprague-Dawley rat at 160 mg/kg, ip by UHPLC-MS analysis; format: ADME, organism-based; parameters: dose 160 mg/kg; details: in vivo
[14] = Half life in Sprague-Dawley rat at 160 mg/kg, ip by UHPLC-MS analysis; format: ADME, organism-based; details: in vivo
[15] = test system: A-375; experiment: Anticancer activity against human A-375 cells xenografted in BALB/c mouse assessed as tumor growth inhibition at 80 mg/kg, ip treated every 3 days measured after 3 weeks relative to control; format: functional; details: A-375, ip, 504 h, read-out: TGI
[16] = Volume of distribution in Sprague-Dawley rat at 160 mg/kg, ip by UHPLC-MS analysis; format: ADME, organism-based; details: in vivo
[17] = Acute toxicity in zebra fish assessed as lethal concentration measured for 96 hrs; parameters: species or system Danio rerio; details: zebrafish
[18] = Effect on intracellular ROS content in human HaCaT cells by DCFH-DA staining-based method; format: toxicity, cell-based
[19] = Toxicity in Sprague-Dawley rat assessed as effect on serum ALT level at 160 mg/kg, ip (reference value: 33.70 to 98.70 U/L); format: organism-based; details: in vivo

| Compound | IC50 [1] [µM] | IC50 [2] [µM] | IC50 [3] [µM] | IC50 [4] [µM] | CC50 at 24 h [5] [µM] | also measured |
| --- | --- | --- | --- | --- | --- | --- |
| N=C(N)NCCCCCCCN | 5.25 | 0.79 | 1.72 | 1.48 | 3.96 |  |
| COc1ccccc1Oc1c(N)nc(-c2cccc(C)c2)nc1Cl | 13.1 | 54 | 33.7 | 65.3 | 11.2 |  |
| COc1ccccc1Oc1c(N)nc(-c2cccc(I)c2)nc1OCCO | 20.3 | 11.2 | 0.56 | 1.23 |  |  |
| COc1ccccc1Oc1c(N)nc(-c2cccc(Br)c2)nc1Cl | 24.6 |  | 35.8 |  | 16.1 |  |
| COc1ccccc1Oc1c(N)nc(-c2cccc(Cl)c2)nc1OCCO | 5.01 | 4.17 | 4.42 | 30.2 |  |  |
| COc1ccccc1Oc1c(N)nc(Cc2ccccc2)nc1Cl | 39.1 | 8.65 | 0.05 | 15.7 | 30.6 |  |
| COc1ccccc1Oc1c(N)nc(-c2cccc(C)c2)nc1OCCO | 70.9 | 14.7 | 1.17 | 1.38 |  |  |
| COc1ccccc1Oc1c(N)nc(-c2ccc(Cl)cc2)nc1Cl | 18.8 | 0.12 | 0.1 | 1.03 |  |  |
| COc1ccc(-c2nc(N)c(Oc3ccccc3OC)c(OCCO)n2)cc1 | 18.1 |  |  |  |  |  |
| COc1ccccc1Oc1c(N)nc(-c2cccc(F)c2)nc1OCCO | 20.9 | 3.21 | 0.33 | 8.53 |  |  |
| COc1ccccc1Oc1c(N)nc(-c2ccccc2F)nc1OCCO | 11.8 |  | 5.43 | > 80 | 39.5 |  |
| COc1cccc(-c2nc(N)c(Oc3ccccc3OC)c(Cl)n2)c1 | 23.6 |  | 0.04 | 24.6 | 14 |  |
| COc1ccccc1Oc1c(N)nc(-c2ccc(F)cc2)nc1OCCO | 30.1 | 20.1 | 2.38 | 15.9 | 15.1 |  |
| COc1ccccc1Oc1c(N)nc(-c2cccc(Br)c2)nc1OCCO | 21.9 | 4.04 | 4.31 | 0.65 |  |  |
| COc1ccccc1Oc1c(N)nc(-c2ccc(Cl)cc2)nc1OCCO | 7.74 | > 80 | 38.1 | > 80 |  |  |
| COc1ccccc1Oc1c(N)nc(-c2ccc(F)cc2)nc1Cl | 2.99 | 31.9 | 0.64 | 28.2 | 42.6 |  |

| Compound | IC50 [1] [µM] | IC50 [2] [µM] | IC50 [3] [µM] | IC50 [4] [µM] | CC50 at 24 h [5] [µM] | also measured |
| --- | --- | --- | --- | --- | --- | --- |
| COc1ccccc1Oc1c(N)nc(-c2ccccc2F)nc1Cl | 13.8 |  | 12.9 | > 80 | > 80 |  |
| COc1ccccc1Oc1c(N)nc(-c2ccc(C)cc2)nc1Cl | 17.4 |  | 59.1 | > 80 | 6.3 |  |
| COc1ccccc1Oc1c(N)nc(-c2ccccc2)nc1OCCO | 31.1 | > 80 | 53.7 | > 80 |  |  |
| COc1ccccc1Oc1c(N)nc(-c2ccc(C)cc2)nc1OCCO | 8.43 | 6.19 | 0.18 | 2.38 | 56.6 |  |
| COc1ccccc1Oc1c(N)nc(-c2cccc(Cl)c2)nc1Cl | 17.9 | 19.4 | 20 | 38.3 | > 80 |  |
| COc1ccccc1Oc1c(N)nc(-c2ccc(I)cc2)nc1OCCO | 19.6 |  | 2.29 |  |  |  |
| COc1ccccc1Oc1c(N)nc(Cc2ccccc2)nc1OCCO | 47.4 | 14 | 0.32 | 0.2 |  |  |
| COc1ccccc1Oc1c(N)nc(-c2ccccc2)nc1Cl | 4.61 | 3.14 | 0.53 | 7.22 |  | CC50 [6]: Not Active |
| COc1ccccc1Oc1c(N)nc(-c2ccc(I)cc2)nc1Cl | 5.4 | 1.25 | 0.18 | 0.48 |  |  |
| COc1ccccc1Oc1c(N)nc(-c2ccc(Br)cc2)nc1Cl | 4.44 | 0.014 | 0.014 | 0.063 | 58.6 | Activity [7]: 24.375 µmol/L; Activity [8]: 113.1 U/L; CL/F [9]: 743 mL/min/kg; Activity [10]: 4.345 mmol/L; logS0 [11]: -4.416; AUC(0-inf) [12]: 5660 ng·h/mL; AUC(0-t) [13]: 2400 ng·h/mL; half-life [14]: 3.66 h; inhibition in vivo at 80 mg/kg [15]: 50.3%; Vd [16]: 228.602 L/kg; LC50 at 96 h [17]: 3750 µg/mL (≈ 9.23 mM); Activity [18]: Non-Toxic; Activity [19]: 80.47 U/L |
| COc1cccc(-c2nc(N)c(Oc3ccccc3OC)c(OCCO)n2)c1 | 30.4 |  | 80 |  | 12.7 |  |
| COc1ccccc1Oc1c(N)nc(-c2ccc(Br)cc2)nc1OCCO | 11.8 | 4.4 | 11.8 | 10.3 |  |  |
| COc1ccc(-c2nc(N)c(Oc3ccccc3OC)c(Cl)n2)cc1 | 47.8 |  | 18.2 | > 80 | 8.2 |  |
| COc1ccccc1Oc1c(N)nc(-c2cccc(I)c2)nc1Cl | 27.6 | 4.66 | 38.7 | 2.2 |  |  |
| COc1ccccc1Oc1c(N)nc(-c2cccc(F)c2)nc1Cl | 21.7 |  |  |  | 17 |  |
| COc1ccccc1Oc1c(NS(=O)(=O)c2ccc(C(C)(C)C)cc2)nc(-c2ncccn2)nc1OCCO [BOSENTAN] | > 80 | 53.6 | 60.8 | 67.4 |  |  |

From ChEMBL document CHEMBL5042482, “Novel Allosteric Inhibitors of Deoxyhypusine Synthase against Malignant Melanoma: Design, Synthesis, and Biological Evaluation” (J Med Chem, 2021)
